Experimental data as given in ChEMBL document CHEMBL4619774 (J Med Chem, 2020).

Key:
[1] = AUC (0 to t) in Sprague-Dawley rat at 1 mg/kg, iv administered as bolus dose by HPLC-MS/MS analysis; type: ADME, organism-based; details: in vivo
[2] = Dose normalized AUC in C57BL/6 mouse at 3 mg/kg, po by LC-MS/MS analysis; type: ADME, organism-based; details: in vivo
Coagulation factor X = Coagulation factor X (Homo sapiens, UniProt P00742); type: single protein
[3] = Dose normalized Cmax in Sprague-Dawley rat at 30 mg/kg, po via gavage by HPLC-MS/MS analysis; type: ADME, organism-based; details: in vivo
[4] = Oral bioavailability in C57BL/6 mouse at 100 mg/kg by LC-MS/MS analysis; type: ADME, organism-based; details: in vivo
Plasma kallikrein = Plasma kallikrein (Homo sapiens, UniProt P03952); type: single protein
Sequence of Plasma kallikrein (P03952 20-390 limits assumed): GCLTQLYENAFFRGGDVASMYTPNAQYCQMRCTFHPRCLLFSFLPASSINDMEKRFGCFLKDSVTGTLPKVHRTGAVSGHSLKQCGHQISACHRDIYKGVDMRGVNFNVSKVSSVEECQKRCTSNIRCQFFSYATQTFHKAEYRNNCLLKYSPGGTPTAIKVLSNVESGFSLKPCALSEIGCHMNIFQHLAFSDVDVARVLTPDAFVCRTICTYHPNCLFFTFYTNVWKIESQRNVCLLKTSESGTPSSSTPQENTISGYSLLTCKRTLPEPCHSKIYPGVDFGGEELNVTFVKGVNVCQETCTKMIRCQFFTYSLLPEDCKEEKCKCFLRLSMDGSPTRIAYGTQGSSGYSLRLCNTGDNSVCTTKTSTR
Sequence of Plasma kallikrein (P03952 391-638 limits assumed): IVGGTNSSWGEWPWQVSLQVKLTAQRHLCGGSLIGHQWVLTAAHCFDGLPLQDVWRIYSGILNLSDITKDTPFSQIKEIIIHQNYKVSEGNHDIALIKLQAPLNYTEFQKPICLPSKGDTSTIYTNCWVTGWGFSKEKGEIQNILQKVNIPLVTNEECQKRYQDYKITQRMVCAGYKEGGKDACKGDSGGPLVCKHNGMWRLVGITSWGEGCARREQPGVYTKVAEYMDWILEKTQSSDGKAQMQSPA

[5] = Oral bioavailability in beagle dog at 75 mg/kg via gavage by HPLC-MS/MS analysis; type: ADME, organism-based, Canis lupus familiaris; details: in vivo
[6] = Efflux ratio of apparent permeability from basolateral to apical side over apical to basolateral side in MDCK-MDR1 cells; type: ADME, cell-based, Canis lupus familiaris; details: dog
Coagulation factor IX = Coagulation factor IX (Homo sapiens, UniProt P00740); type: single protein
Sequence of Coagulation factor IX (P00740 47-191 limits assumed): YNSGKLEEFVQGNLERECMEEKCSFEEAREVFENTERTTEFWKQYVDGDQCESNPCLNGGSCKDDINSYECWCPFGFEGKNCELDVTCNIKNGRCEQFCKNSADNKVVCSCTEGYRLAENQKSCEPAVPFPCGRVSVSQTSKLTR
Sequence of Coagulation factor IX (P00740 227-461 limits assumed): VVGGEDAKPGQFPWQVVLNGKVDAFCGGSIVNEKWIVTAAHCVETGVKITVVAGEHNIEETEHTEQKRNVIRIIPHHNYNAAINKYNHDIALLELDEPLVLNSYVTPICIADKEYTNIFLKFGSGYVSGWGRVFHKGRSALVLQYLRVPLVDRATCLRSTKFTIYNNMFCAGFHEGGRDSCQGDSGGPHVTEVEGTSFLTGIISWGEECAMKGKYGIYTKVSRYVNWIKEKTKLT

[7] = Dose normalized Cmax in C57BL/6 mouse at 100 mg/kg, po by LC-MS/MS analysis; type: ADME, organism-based; details: in vivo
[8] = Terminal half life in C57BL/6 mouse at 0.4 mg/kg, iv bolus injection or 3 mg/kg, po by LC-MS/MS analysis; type: ADME, organism-based; details: in vivo, read-out: beta t1/2 (converted)
[9] = Volume of distribution at steady state in beagle dog at 1 mg/kg, iv by HPLC-MS/MS analysis; type: ADME, organism-based, Canis lupus familiaris; details: in vivo, read-out: Vdss
[10] = Dose normalized AUC (0 to t) in Sprague-Dawley rat at 100 mg/kg, po via gavage by HPLC-MS/MS analysis; type: ADME, organism-based; details: in vivo
Prothrombin = Prothrombin (Homo sapiens, UniProt P00734); type: single protein
[11] = Half life in beagle dog at 1 mg/kg, iv by HPLC-MS/MS analysis; type: ADME, organism-based, Canis lupus familiaris; details: in vivo
[12] = Dose normalized AUC (0 to t) in beagle dog at 10 mg/kg, po via gavage by HPLC-MS/MS analysis; type: ADME, organism-based, Canis lupus familiaris; details: in vivo
Plasma [13] = test: Effect on coagulation in human plasma assessed as concentration required to double the prothrombin time by thromboplastin-DS reagent based automated coagulometric method; type: ADME, cell-free
[14] = Dose normalized Cmax in beagle dog at 75 mg/kg, po via gavage by HPLC-MS/MS analysis; type: ADME, organism-based, Canis lupus familiaris; details: in vivo
[15] = Dose normalized AUC (0 to t) in beagle dog at 75 mg/kg, po via gavage by HPLC-MS/MS analysis; type: ADME, organism-based, Canis lupus familiaris; details: in vivo
[16] = AUC (0 to t) in beagle dog at 1 mg/kg, iv by HPLC-MS/MS analysis; type: ADME, organism-based, Canis lupus familiaris; details: in vivo
[17] = Dose normalized AUC (0 to t) in Sprague-Dawley rat at 3 mg/kg, po via gavage by HPLC-MS/MS analysis; type: ADME, organism-based; details: in vivo
[18] = Oral bioavailability in beagle dog at 10 mg/kg via gavage by HPLC-MS/MS analysis; type: ADME, organism-based, Canis lupus familiaris; details: in vivo
[19] = Dose normalized Cmax in Sprague-Dawley rat at 3 mg/kg, po via gavage by HPLC-MS/MS analysis; type: ADME, organism-based; details: in vivo
Plasminogen = Plasminogen (Homo sapiens, UniProt P00747); type: single protein
Sequence of Plasminogen (P00747 97-580 limits assumed): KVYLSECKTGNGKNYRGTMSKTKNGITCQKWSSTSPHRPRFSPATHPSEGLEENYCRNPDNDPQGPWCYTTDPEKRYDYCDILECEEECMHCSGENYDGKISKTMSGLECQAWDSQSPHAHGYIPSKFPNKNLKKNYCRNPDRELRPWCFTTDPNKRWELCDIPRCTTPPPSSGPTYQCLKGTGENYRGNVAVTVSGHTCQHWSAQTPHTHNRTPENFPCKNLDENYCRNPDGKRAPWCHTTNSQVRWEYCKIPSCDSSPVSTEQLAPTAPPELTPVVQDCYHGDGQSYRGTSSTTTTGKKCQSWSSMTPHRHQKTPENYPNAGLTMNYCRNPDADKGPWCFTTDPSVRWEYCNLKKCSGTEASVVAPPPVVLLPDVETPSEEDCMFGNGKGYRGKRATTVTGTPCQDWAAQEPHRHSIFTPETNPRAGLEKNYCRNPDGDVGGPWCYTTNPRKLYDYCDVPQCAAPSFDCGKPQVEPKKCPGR
Sequence of Plasminogen (P00747 581-810 limits assumed): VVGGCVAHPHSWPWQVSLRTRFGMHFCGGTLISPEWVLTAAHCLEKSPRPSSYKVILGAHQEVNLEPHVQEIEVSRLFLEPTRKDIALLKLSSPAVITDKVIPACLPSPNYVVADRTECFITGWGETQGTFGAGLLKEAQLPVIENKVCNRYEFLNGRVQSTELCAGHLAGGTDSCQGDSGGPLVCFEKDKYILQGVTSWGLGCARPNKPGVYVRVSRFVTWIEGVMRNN

[20] = Tmax in C57BL/6 mouse at 0.4 mg/kg, iv bolus injection or 3 mg/kg, po by LC-MS/MS analysis; type: ADME, organism-based; details: in vivo
[21] = Dose normalized Cmax in beagle dog at 10 mg/kg, po via gavage by HPLC-MS/MS analysis; type: ADME, organism-based, Canis lupus familiaris; details: in vivo
[22] = target: Prostaglandin G/H synthase 1 (Homo sapiens, UniProt P23219); test: Inhibition of COX1 (unknown origin)
Sequence of Prostaglandin G/H synthase 1 (P23219 whole entry): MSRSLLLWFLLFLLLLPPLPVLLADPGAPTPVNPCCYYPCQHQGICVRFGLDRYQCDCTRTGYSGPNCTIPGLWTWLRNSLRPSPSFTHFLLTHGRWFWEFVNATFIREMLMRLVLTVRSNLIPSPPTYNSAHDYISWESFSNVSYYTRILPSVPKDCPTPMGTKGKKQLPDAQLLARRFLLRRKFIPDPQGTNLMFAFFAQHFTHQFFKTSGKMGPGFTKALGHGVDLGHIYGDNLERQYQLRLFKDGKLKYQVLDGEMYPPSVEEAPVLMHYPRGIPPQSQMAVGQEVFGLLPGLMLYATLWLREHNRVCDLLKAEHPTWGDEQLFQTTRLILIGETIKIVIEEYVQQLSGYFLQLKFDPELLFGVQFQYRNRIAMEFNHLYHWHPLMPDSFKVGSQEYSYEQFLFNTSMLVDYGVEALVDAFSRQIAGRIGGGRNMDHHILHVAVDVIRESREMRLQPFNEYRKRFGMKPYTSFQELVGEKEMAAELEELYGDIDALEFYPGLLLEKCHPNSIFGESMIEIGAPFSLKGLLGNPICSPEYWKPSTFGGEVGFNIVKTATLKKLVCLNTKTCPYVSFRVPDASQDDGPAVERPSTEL

[23] = target: Urokinase-type plasminogen activator (Homo sapiens, UniProt P00749); type: single protein
physchem = details: buffer, pH 7.4
[24] = Oral bioavailability in Sprague-Dawley rat at 30 mg/kg via gavage by HPLC-MS/MS analysis; type: ADME, organism-based; details: in vivo
[25] = target: T1, Peroxisome proliferator-activated receptor gamma (Homo sapiens) (UniProt P37231); test: Binding affinity to PPARgamma (unknown origin) at 10 uM
T1 sequence (whole entry): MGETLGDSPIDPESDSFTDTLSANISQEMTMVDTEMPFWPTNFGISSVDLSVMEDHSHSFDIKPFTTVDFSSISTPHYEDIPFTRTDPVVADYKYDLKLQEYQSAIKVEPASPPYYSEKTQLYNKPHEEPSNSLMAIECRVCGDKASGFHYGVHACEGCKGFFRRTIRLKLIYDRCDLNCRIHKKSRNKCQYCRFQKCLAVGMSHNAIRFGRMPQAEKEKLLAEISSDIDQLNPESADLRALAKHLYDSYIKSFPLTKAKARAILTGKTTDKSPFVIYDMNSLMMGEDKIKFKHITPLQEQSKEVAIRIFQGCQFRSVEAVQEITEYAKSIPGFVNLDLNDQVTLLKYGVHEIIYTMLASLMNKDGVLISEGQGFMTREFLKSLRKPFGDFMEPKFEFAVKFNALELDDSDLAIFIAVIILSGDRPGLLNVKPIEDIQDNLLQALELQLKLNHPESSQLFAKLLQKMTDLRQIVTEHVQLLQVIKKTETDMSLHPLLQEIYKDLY

[26] = Half life in Sprague-Dawley rat at 1 mg/kg, iv administered as bolus dose by HPLC-MS/MS analysis; type: ADME, organism-based; details: in vivo
[27] = Apparent permeability across apical to basolateral side in MDCK-MDR1 cells; type: ADME, cell-based, Canis lupus familiaris; details: dog
[28] = target: 3',5'-cyclic-AMP phosphodiesterase 4D (Homo sapiens, UniProt Q08499); test: Inhibition of PDE4D (unknown origin)
Sequence of 3',5'-cyclic-AMP phosphodiesterase 4D (Q08499 whole entry): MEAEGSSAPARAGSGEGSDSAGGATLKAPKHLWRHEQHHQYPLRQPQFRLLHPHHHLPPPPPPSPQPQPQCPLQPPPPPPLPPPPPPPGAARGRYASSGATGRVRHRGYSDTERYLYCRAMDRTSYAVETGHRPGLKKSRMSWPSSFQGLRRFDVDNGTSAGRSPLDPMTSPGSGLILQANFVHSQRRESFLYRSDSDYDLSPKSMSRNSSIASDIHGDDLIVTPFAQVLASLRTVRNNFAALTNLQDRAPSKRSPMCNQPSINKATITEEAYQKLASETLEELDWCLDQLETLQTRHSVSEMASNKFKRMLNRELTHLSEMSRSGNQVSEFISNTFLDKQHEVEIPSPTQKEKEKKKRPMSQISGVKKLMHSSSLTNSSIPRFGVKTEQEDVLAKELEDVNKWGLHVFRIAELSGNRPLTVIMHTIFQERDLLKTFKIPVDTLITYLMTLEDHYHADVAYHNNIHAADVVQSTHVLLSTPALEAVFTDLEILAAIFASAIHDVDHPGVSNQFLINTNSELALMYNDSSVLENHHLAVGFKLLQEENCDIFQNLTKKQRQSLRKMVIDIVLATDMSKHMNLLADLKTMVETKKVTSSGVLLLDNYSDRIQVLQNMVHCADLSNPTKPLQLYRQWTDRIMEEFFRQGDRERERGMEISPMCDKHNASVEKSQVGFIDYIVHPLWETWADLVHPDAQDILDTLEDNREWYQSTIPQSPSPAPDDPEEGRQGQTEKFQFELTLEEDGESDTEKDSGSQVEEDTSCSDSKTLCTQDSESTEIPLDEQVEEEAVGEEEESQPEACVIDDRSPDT

[29] = Dose normalized Cmax in Sprague-Dawley rat at 100 mg/kg, po via gavage by HPLC-MS/MS analysis; type: ADME, organism-based; details: in vivo
[30] = Tmax in C57BL/6 mouse at 100 mg/kg, po by LC-MS/MS analysis; type: ADME, organism-based; details: in vivo
[31] = Clearance in Sprague-Dawley rat at 1 mg/kg, iv by HPLC-MS/MS analysis; type: ADME, organism-based; details: in vivo
[32] = Dose normalized Cmax in C57BL/6 mouse at 0.4 mg/kg, iv bolus injection or 3 mg/kg, po by LC-MS/MS analysis; type: ADME, organism-based; details: in vivo
Plasma [33] = test: Anticoagulant activity in human plasma assessed as concentration required to double the activated partial thromboplastin time incubated for 3 mins followed by calcium chloride addition by aPTT-s reagent based automated coagulometric method; type: functional
[34] = target: Tissue-type plasminogen activator (Homo sapiens, UniProt P00750); type: single protein
Sequence of Tissue-type plasminogen activator (P00750 whole entry): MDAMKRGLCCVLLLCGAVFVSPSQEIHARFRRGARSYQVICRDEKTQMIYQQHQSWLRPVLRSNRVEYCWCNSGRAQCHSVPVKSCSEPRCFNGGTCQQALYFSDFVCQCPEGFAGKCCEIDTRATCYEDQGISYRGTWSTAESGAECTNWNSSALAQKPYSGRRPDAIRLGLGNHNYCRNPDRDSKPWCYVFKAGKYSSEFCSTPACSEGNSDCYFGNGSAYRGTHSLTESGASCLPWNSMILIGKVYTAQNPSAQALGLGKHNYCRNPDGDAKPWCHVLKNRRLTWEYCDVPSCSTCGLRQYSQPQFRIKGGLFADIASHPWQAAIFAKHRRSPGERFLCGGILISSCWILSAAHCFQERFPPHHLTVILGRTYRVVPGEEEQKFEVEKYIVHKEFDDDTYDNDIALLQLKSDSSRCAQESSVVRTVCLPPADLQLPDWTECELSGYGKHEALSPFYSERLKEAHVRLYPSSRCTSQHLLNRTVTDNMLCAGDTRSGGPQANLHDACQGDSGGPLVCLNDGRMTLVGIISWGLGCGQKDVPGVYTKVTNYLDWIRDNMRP

[35] = Clearance in beagle dog at 1 mg/kg, iv administered as bolus dose by HPLC-MS/MS analysis; type: ADME, organism-based, Canis lupus familiaris; details: in vivo

Sequence of Coagulation factor X (P00742 41-179 limits assumed): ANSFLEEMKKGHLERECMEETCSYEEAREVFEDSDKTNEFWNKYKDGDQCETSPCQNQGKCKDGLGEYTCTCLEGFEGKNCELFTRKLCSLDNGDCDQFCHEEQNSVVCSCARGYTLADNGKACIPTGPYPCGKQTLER
Sequence of Coagulation factor X (P00742 235-488 limits assumed): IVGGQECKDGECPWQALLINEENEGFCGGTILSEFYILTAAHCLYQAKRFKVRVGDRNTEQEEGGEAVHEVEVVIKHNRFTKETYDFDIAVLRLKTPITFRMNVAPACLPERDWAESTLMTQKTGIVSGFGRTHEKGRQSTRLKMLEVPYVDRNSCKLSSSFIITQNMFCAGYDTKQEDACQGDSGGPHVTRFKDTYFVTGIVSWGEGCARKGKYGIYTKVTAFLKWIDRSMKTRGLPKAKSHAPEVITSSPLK

With `CC(C)c1cc(-c2ccc3c(c2)[C@H](N)CO3)cc([C@H](O)Cn2ccc3cccc(C(=O)O)c32)c1` the AUC(0-t) [1] was 3.33 µM·h, the AUC/dose [2] was 1297 nM·h and the IC50 (Coagulation factor X) was 1050 nM. It also gave a Cmax/dose [3] of 143 nM, a bioavailability [4] of 100% and an IC50 (Plasma kallikrein) of 1 nM. The bioavailability [5] was 21%, the efflux ratio [6] was 21.5 and the IC50 (Coagulation factor IX) was 1920 nM. The Cmax/dose [7] was 26795 nM, the half-life [8] was 3.73 h and the Vd [9] was 0.3 L/kg. The AUCt/dose [10] was 1770 nM·h, the IC50 (Prothrombin) was 2570 nM and the half-life [11] was 2.8 h. For the same compound, the AUCt/dose [12] was 560 nM·h, the 2PT (Plasma [13]) was 28.7 µM and the Cmax/dose [14] was 504 nM. The AUCt/dose [15] was 2200 nM·h, the AUC(0-t) [16] was 10.7 µM·h and the AUCt/dose [17] was 382 nM·h. For the same compound, the bioavailability [18] was 5%, the Cmax/dose [19] was 77 nM and the IC50 (Plasminogen) was 1890 nM. For the same compound, the Tmax [20] was 1 h, the Cmax/dose [21] was 217 nM and the IC50 [22] was 4300 nM. It also gave an IC50 [23] of 170 nM, a logD (physchem) of 2.2 and a bioavailability [24] of 19%. The Activity [25] was 65%, the half-life [26] was 6.4 h and the Papp A→B [27] was 0.4 ×10⁻⁶ cm/s. The IC50 [28] was 2400 nM, the Cmax/dose [29] was 323 nM and the Tmax [30] was 4 h. For the same compound, the clearance [31] was 9.4 mL/min/kg, the Cmax/dose [32] was 494 nM and the 2aPTT (Plasma [33]) was 1.3 µM. For the same compound, the IC50 [34] was 250 nM and the clearance [35] was 4.4 mL/min/kg.
